According to patent publication US20250304537A1 (Repare Therapeutics Inc., priority 2022, published 2025):
Like-named read-outs stand apart in the source and are kept apart here.

System: PKMYT1 (CDK1 pThr14) in FUOV1 cells
Assay: PKMYT1 cell-based activity assay, CDK1 pThr14 AlphaLISA in FUOV1 cells
Settings: read-out: FUOV-1 CDK1 pThr14 IC50
How it was run: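 FUOV1 cells were treated with PKMYT1 inhibitor for 2 h at 37 °C, then lysed. CDK1 pThr14 was measured by AlphaLISA, pairing an anti-pThr14 antibody with an anti-total CDK1 antibody (5 nM each). Signal read at 680/615 nm and used to derive IC50.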

| Compound | IC50 (2 h, 2 h compound incubation) [nM] | also measured |
| --- | --- | --- |
| Cc1ccc2[nH]ncc2c1-c1nc(-c2nccnc2NCC(F)(F)F)nc(C(N)=O)c1N [Compound 555, 5-amino-6-(5-methyl-1H-indazol-4-yl)-2-(3-((2,2,2-trifluoroethyl)amino)pyrazin-2-yl)pyrimidine-4-carboxamide] | 219 | – |
| Cc1ccc2[nH]ncc2c1-c1nc(-c2cc(F)c(C#N)cc2Nc2ncccn2)nc(C(N)=O)c1N [Compound 761] | 75 | – |
| Cc1ccc2[nH]ncc2c1-c1nc(-c2cccnc2N[C@@H]2CCOC[C@H]2F)nc(C(N)=O)c1N [Compound 647] | 28 | – |
| Cc1cncc(Nc2nc(C)ccc2-c2nc(C(N)=O)c(N)c(-c3c(C)ccc4[nH]ncc34)n2)n1 [Compound 688] | 180 | – |
| Cc1ccc2[nH]ncc2c1-c1cc2c(oc3ccc(NC4CCOCC4)nc32)c(C(N)=O)c1N [Compound 575] | 24 | – |
| COCCNc1ccc2oc3c(C(N)=O)c(N)c(-c4c(C)ccc5[nH]ncc45)cc3c2n1 [Compound 558, 7-amino-2-((2-methoxyethyl)amino)-8-(5-methyl-1H-indazol-4-yl)benzofuro[3,2-b]pyridine-6-carboxamide] | 95 | – |
| Cc1ccc2[nH]ncc2c1-c1nc(-c2ccc(F)nc2Nc2ncccn2)nc(C(N)=O)c1N [Compound 758] | 83 | – |
| Cc1cc(F)c2[nH]ncc2c1-c1nc(-c2cccnc2NCC(F)(F)F)nc(C(N)=O)c1N [Compound 872] | – | IC50 (2 h, 2 hours with compound): 147 nM |
| Cc1ccc2[nH]ncc2c1-c1nc(-c2cccnc2NC[C@@H]2CCO2)nc(C(N)=O)c1N [Compound 650] | 179 | – |
| COc1cncc(Nc2cc(F)ccc2-c2nc(C(N)=O)c(N)c(-c3c(C)ccc4[nH]ncc34)n2)n1 [Compound 696] | 69 | – |
| NC(=O)c1nc(-c2ccccc2Nc2ncccn2)nc(-c2c(Cl)ccc3[nH]ncc23)c1N [Compound 948] | – | IC50 (2 h, 2 hours with compound): 44 nM |
| Cc1ccc2[nH]ncc2c1-c1nc(-c2cc(F)ccc2NC(=O)C2(C)CCOCC2)nc(C(N)=O)c1N [Compound 505] | 36 | – |
| Cc1ccc2[nH]ncc2c1-c1nc(-c2ccc(F)cc2Nc2cncc(F)c2)nc(C(N)=O)c1N [Compound 665] | 41 | – |
| Cc1ccc2[nH]ncc2c1-c1nc(-c2cc(F)cnc2NCc2cnn(C)c2)nc(C(N)=O)c1N [Compound 895] | – | IC50 (2 h, 2 hours with compound): 876 nM |
| Cc1ccc(-c2nc(C(N)=O)c(N)c(-c3c(C)ccc4[nH]ncc34)n2)c(Nc2nccnc2Cl)n1 [Compound 721] | 4 | – |
| Cc1ccc2[nH]ncc2c1-c1nc(-c2cc(F)ccc2Nc2cccnc2)nc(C(N)=O)c1N [Compound 519, 5-amino-2-(5-fluoro-2-(pyridin-3-ylamino)phenyl)-6-(5-methyl-1H-indazol-4-yl)pyrimidine-4-carboxamide] | 59 | – |
| Cc1ccc2[nH]ncc2c1-c1nc(-c2cc(F)cnc2NCC2(C#N)CC2)nc(C(N)=O)c1N [Compound 705] | 33 | – |
| Cc1ccc2[nH]ncc2c1-c1nc(-c2cnsc2NC2CCOCC2)nc(C(N)=O)c1N [Compound 856] | – | IC50 (2 h, 2 hours with compound): 35 nM |
| Cc1ccc2[nH]ncc2c1-c1nc(-c2cc(F)cnc2N[C@H]2COC[C@@H]2O)nc(C(N)=O)c1N [Compound 813] | – | IC50 (2 h, 2 hours with compound): 123 nM |
| Cc1ccc2[nH]ncc2c1-c1nc(-c2cc(F)cnc2NC2CCC(F)(F)CC2)nc(C(N)=O)c1N [Compound 731] | 773 | – |
| Cn1cc(-c2nc(C(N)=O)c(N)c(-c3c(Cl)ccc4[nH]ncc34)n2)c(NC2CCCC2)n1 [Compound 920] | – | IC50 (2 h, 2 hours with compound): 118 nM |
| Cc1ccc2[nH]ncc2c1-c1nc(-c2cccnc2NC2(C)CCOC2)nc(C(N)=O)c1N (stereo not shown) [Compound 591] | 22 | – |
| [2H]C([2H])([2H])c1ccc2[nH]ncc2c1-c1nc(-c2ccc(C(F)F)nc2Nc2ncccc2F)nc(C(N)=O)c1N [Compound 959] | – | IC50 (2 h, 2 hours with compound): 8 nM |
| Cc1ccc2[nH]ncc2c1-c1nc(-c2cc(F)cnc2N[C@@H]2C[C@H]3CC[C@@H]2O3)nc(C(N)=O)c1N [Compound 836] | – | IC50 (2 hours with compound): 15 nM |
| Cc1ccc(-c2nc(C(N)=O)c(N)c(-c3c(C)ccc4[nH]ncc34)n2)c(Nc2ncccn2)c1 [Compound 653] | 61 | – |
